Where a name gives a salt, the structure may show the parent alone. Read-outs that look alike come from different tables or passages of the source.
Legend:
PEX405 cells [1] = format: cell-based; conditions: 3 days, PI positive cells (dead cells)
Experimental: (§1) Images were acquired using the EnSight multimode plate reader (PerkinElmer) and analysis was done using Columbus analysis software (PerkinElmer). […] Then the total number of cells and the % of dead cells was calculated.
(§2) All HDAC inhibitors were tested at 1.3 and 10 µM for 3 days on GM16513 and PEX405 cells.

GM16513 cells [2] = format: cell-based; conditions: 3 days, PI positive cells (dead cells)
Experimental: as §1, §2

PEX405 cells [3] = experiment: Catalase import immunofluorescence, high-content screening (% importing cells); format: cell-based, human; conditions: PEX405 cells, 3 days
Experimental: Primary fibroblasts were seeded at 500-700 cells per well in 384-well plates and grown at 37°C overnight. Cells were treated with test compounds or 0.1% DMSO for 3 days. After 3 days and a wash with PBS, cells were fixed with 4% paraformaldehyde (Electron Microscopy Sciences) in PBS for 20 minutes. After 3 washes with PBS, the cells were permeabilized and blocked with 0.3% Triton X-100, 1% BSA in PBS for 30 minutes at room temperature followed by 3 washes with 1% BSA in PBS. The cells were incubated with a rabbit Catalase polyclonal antibody (#12980 Cell signaling) overnight at 4°C. Following 3 washes with PBS containing 0.1% Tween-20, the cells were incubated for 1 h at room temperature with a conjugated goat anti-rabbit secondary antibody Alexa Fluor 647 (Ab150083-Abcam). The cells were then washed 3 times with PBS and Hoechst 33342 (H3570-ThermoFisher Scientific) + HCS Cellmask Blue (H32720 - ThermoFisher Scientific) staining was performed at 0.1 µg/ml and 0.4 µg/mL respectively for 30 minutes at room temperature. The cells were finally washed 3 times with PBS and fluorescent images were acquired using the INCell Analyzer 6000 imaging platform (GE Healthcare Life Sciences).
Images analysis was done using Columbus analysis software (PerkinElmer). DAPI channel was used to find nuclei (Hoechst 33342) and cytoplasm (HCS CellMask Blue) and border objects were removed. Cy5 channel (AlexaFluor 647) was used to find spots corresponding to peroxisomes which correctly import catalase. Cells were classified as importing or non-importing cells using a linear classifier method after training with images of wells containing Healthy cells and PEX1 deficient cells. The number of importing or non-importing cells was calculated. Finally, results were expressed as % of importing cells.
The cytotoxicity was assessed in parallel using a double nucleus staining with Hoechst 33342 and Propidium Iodide (PI).

GM16513 cells [4] = experiment: as above; format: cell-based, human; conditions: GM16513 cells, 3 days; for EC50 / Emax: Homo sapiens, 72 h, dose response with 6 concentrations; for EC50: read-out: EC50; for Emax: read-out: Max Efficacy (% Importing cells)

Row | Compound | % PI+ cells (PEX405 cells [1]; 1.3 µM) | % PI+ cells (PEX405 cells [1]; 10 µM) | % PI+ cells (GM16513 cells [2]; 1.3 µM) | % PI+ cells (GM16513 cells [2]; 10 µM) | % Importing cells (PEX405 cells [3]; 1.3 µM) | % Importing cells (PEX405 cells [3]; 10 µM) | % Importing cells (GM16513 cells [4]; 1.3 µM) | % Importing cells (GM16513 cells [4]; 10 µM) | EC50 (GM16513 cells [4]) | Emax (GM16513 cells [4])
1 | O=C(NO)c1ccc(CNC(=O)c2[nH]c(-c3ccc(O)cc3)cc2-c2ccoc2)cc1.O=C(O)C(F)(F)F [QTX125 (TFA)] | 13% | 48% | 11% | 30% | 23% | 0% | 83% | 61% | – | –
2 | Cn1cc(CNCC2CCN(c3ncc(C(=O)NO)cn3)CC2)c2ccccc21 [Quisinostat] | 24% | 53% | 17% | 38% | 40% | 26% | 98% | 86% | 30 nM | 95%
3 | Nc1cc(F)ccc1NC(=O)/C=C/c1cnn(C/C=C/c2ccccc2)c1 [RGFP966] | 1% | 1% | 1% | 3% | 1% | 2% | 11% | 12% | – | –
4 | COC(=O)c1ccc(OC(=O)CCCCCCC(=O)NO)cc1 [Remetinostat] | 0% | 1% | 1% | 1% | 3% | 2% | 12% | 14% | – | –
5 | CN(C)Cc1ccc(S(=O)(=O)n2ccc(/C=C/C(=O)NO)c2)cc1 [Resminostat (hydrochloride), Resminostat] | 1% | 4% | 2% | 8% | 13% | 19% | 60% | 83% | 1400 nM | 86%
6 | CCCCNNC(=O)c1ccc(-c2cccc(F)c2F)cc1 [SR-4370] | 0% | 1% | 1% | 2% | 5% | 7% | 26% | 30% | – | –
7 | O=C(NO)c1ccc(CN2CCCc3cc(Cl)ccc32)cc1 [SW-100] | 0% | 2% | 1% | 5% | 4% | 0% | 21% | 6% | – | –
8 | CCOC(=O)NCCCC(=O)NCCc1ccccc1 [Santacruzamate A] | 2% | 1% | 1% | 1% | 3% | 3% | 24% | 25% | – | –
9 | O=C(CCCCCN1C(=O)c2cccc3cccc(c23)C1=O)NO [Scriptaid] | 1% | 6% | 2% | 8% | 15% | 16% | 57% | 92% | – | –
10 | O=C1CCc2c(ccc3ccccc23)O1 [Splitomicin] | 0% | 1% | 1% | 1% | 5% | 5% | 33% | 25% | – | –
11 | O=C(CCCCCCC(=O)NO)NO [Suberoyl bis-hydroxamic acid] | 1% | 1% | 1% | 2% | 4% | 10% | 13% | 57% | – | –
